In ChEMBL document CHEMBL1141799, “Cyanopeptolin 954, a chlorine-containing chymotrypsin inhibitor of Microcystis aeruginosa NIVA Cya 43” (J Nat Prod, 2005):
Activity calls are given as the source filed them. The rule behind the calls is not given here.

How the values were obtained:
[1] = Inhibition of bovine chymotrypsin; design: species or system Bos taurus
[2] = organism: Bos taurus; assay: Inhibition of bovine trypsin at 17.3 uM
[3] = organism: Bos taurus; assay: Inhibition of bovine trypsin at 11.4 uM
[4] = Inhibition of chymotrypsin

Row | Compound | IC50 [1] | Activity [2] | Activity [3] | IC50 [4]
1 | CC(=O)N[C@@H](CCC(N)=O)C(=O)N[C@@H]1C(=O)N[C@@H](CC(C)C)C(=O)N[C@H]2CC[C@@H](O)N(C2=O)[C@@H](Cc2ccccc2)C(=O)N(C)[C@@H](Cc2ccc(O)c(Cl)c2)C(=O)N[C@@H](C(C)C)C(=O)O[C@H]1C [CYANOPEPTOLIN 954] | 44.5 nM | inactive | inactive | 
2 | CC[C@H](C)[C@@H]1NC(=O)[C@H](Cc2ccc(O)cc2)N(C)C(=O)[C@H](Cc2ccccc2)N2C(=O)[C@H](CC[C@H]2O)NC(=O)[C@H](Cc2ccccc2)NC(=O)[C@@H](NC(=O)[C@@H](O)COP(=O)(O)O)[C@@H](C)OC1=O [MICROPEPTIN T 20] |  |  |  | 2.5 nM
3 | CC(=O)N[C@@H](CCC(N)=O)C(=O)N[C@@H]1C(=O)N[C@@H](CC(C)C)C(=O)N[C@H]2CC[C@@H](O)N(C2=O)[C@@H](Cc2ccccc2)C(=O)N(C)[C@@H](Cc2ccc(O)cc2)C(=O)N[C@@H](C(C)C)C(=O)O[C@@H]1C [NOSTOPEPTIN BN920] | 31.2 nM | inactive | inactive | 
